Assays:
endogenous TFEB = assay: TFEB nuclear translocation, immunocytochemistry high-content imaging; assay type: cell-based; details: PKIS2 primary screening; also: test concentration or dose not given here
SH-SY5Y cells [1] = details: PKIS2 primary screening; for DQ Intensity: DQ Red BSA intensity; for DQ Spot: DQ Red BSA spot count
Source text: The PKIS2 Library was supplied by The Structural Genomics Consortium at the University of North Carolina at Chapel Hill.

SH-SY5Y cells [2] = assay: Nuclear count from microscopy images (cellular growth and toxicity); details: PKIS2 primary screening; also: reference of the scale not given here
endogenous TFE3 = assay: TFE3 nuclear translocation, immunocytochemistry high-content imaging; assay type: cell-based; details: PKIS2 primary screening; also: test concentration or dose not given here
SH-SY5Y cells [3] = assay: AK (adenylate kinase) release ToxiLight cytotoxicity assay; details: PKIS2 primary screening; also: reference of the scale not given here
For DQ Intensity in this document: reference of the scale not given here.
For DQ Spot in this document: reference of the scale not given here.

For `COc1cc(Nc2nccc(N3CCC(NC(=O)C4COc5ccccc5O4)C3)n2)cc(OC)c1OC` (stereo not drawn) [GSK1379761], the TFEB % (endogenous TFEB) was 2.44%, the “DQ Intensity” value (SH-SY5Y cells [1]) was 95.14 and the “DQ Spot” value (SH-SY5Y cells [1]) was 97.75. The “Nuclear Count” value (SH-SY5Y cells [2]) was 125.75, the TFE3 % (endogenous TFE3) was 10.33% and the AK (SH-SY5Y cells [3]) was 96.01.

`COc1cc(Nc2nccc(N3CCC(NC(=O)Nc4cc(C)ccc4C)C3)n2)cc(OC)c1OC` (stereo not drawn) [GSK1379762] was tested, and the TFEB % (endogenous TFEB) was 7.03%, the “DQ Intensity” value (SH-SY5Y cells [1]) was 110.39 and the “DQ Spot” value (SH-SY5Y cells [1]) was 96.86. For the same compound, the “Nuclear Count” value (SH-SY5Y cells [2]) was 111.04, the TFE3 % (endogenous TFE3) was 14.40% and the AK (SH-SY5Y cells [3]) was 74.55.

With `COc1cccc(NC(=O)NC2CCN(c3ccnc(Nc4cc(OC)c(OC)c(OC)c4)n3)C2)c1` (stereo not drawn) [GSK1379763] the TFEB % (endogenous TFEB) was 4.72%, the “DQ Intensity” value (SH-SY5Y cells [1]) was 128.42 and the “DQ Spot” value (SH-SY5Y cells [1]) was 124.42. The “Nuclear Count” value (SH-SY5Y cells [2]) was 90.02, the TFE3 % (endogenous TFE3) was 18.80% and the AK (SH-SY5Y cells [3]) was 111.80.

For `COc1cccc(CNC(=O)NC2CCN(c3ccnc(Nc4cc(OC)c(OC)c(OC)c4)n3)C2)c1` (stereo not drawn) [GSK1379765], the TFEB % (endogenous TFEB) was 3.20%, the “DQ Intensity” value (SH-SY5Y cells [1]) was 73.44 and the “DQ Spot” value (SH-SY5Y cells [1]) was 97.23. For the same compound, the “Nuclear Count” value (SH-SY5Y cells [2]) was 98.25, the TFE3 % (endogenous TFE3) was 15.97% and the AK (SH-SY5Y cells [3]) was 74.87.

In the case of `COc1cc(Nc2nccc(N3CCC(NC(=O)Nc4ccc5c(c4)OCO5)C3)n2)cc(OC)c1OC` (stereo not drawn) [GSK1379766], the TFEB % (endogenous TFEB) is reported as 4.47%, the “DQ Intensity” value (SH-SY5Y cells [1]) is reported as 63.32 and the “DQ Spot” value (SH-SY5Y cells [1]) is reported as 78.55. For the same compound, the “Nuclear Count” value (SH-SY5Y cells [2]) was 95.41, the TFE3 % (endogenous TFE3) was 9.31% and the AK (SH-SY5Y cells [3]) was 118.87.

With `COC(=O)c1cccc(NC(=O)NC2CCN(c3ccnc(Nc4cc(OC)c(OC)c(OC)c4)n3)C2)c1` (stereo not drawn) [GSK1379767] the TFEB % (endogenous TFEB) was 5.97%, the “DQ Intensity” value (SH-SY5Y cells [1]) was 85.74 and the “DQ Spot” value (SH-SY5Y cells [1]) was 95.59. The “Nuclear Count” value (SH-SY5Y cells [2]) was 122.32, the TFE3 % (endogenous TFE3) was 6.50% and the AK (SH-SY5Y cells [3]) was 115.43.

`COc1ccc(CNC(=O)NC2CCN(c3ccnc(Nc4ccc(F)cc4)n3)CC2)cc1` [GSK1379788] was tested, and the TFEB % (endogenous TFEB) was 3.80%, the “DQ Intensity” value (SH-SY5Y cells [1]) was 86.32 and the “DQ Spot” value (SH-SY5Y cells [1]) was 97.11. For the same compound, the “Nuclear Count” value (SH-SY5Y cells [2]) was 82.62, the TFE3 % (endogenous TFE3) was 14.89% and the AK (SH-SY5Y cells [3]) was 114.99.

In the case of `O=C(Nc1ccccc1F)NC1CCN(c2ccnc(Nc3ccc(F)cc3)n2)CC1` [GSK1379800], the TFEB % (endogenous TFEB) is reported as 6.86%, the “DQ Intensity” value (SH-SY5Y cells [1]) is reported as 95.32 and the “DQ Spot” value (SH-SY5Y cells [1]) is reported as 97.06. The “Nuclear Count” value (SH-SY5Y cells [2]) was 118.12, the TFE3 % (endogenous TFE3) was 9.18% and the AK (SH-SY5Y cells [3]) was 198.42.

For `COc1ccc(Nc2nccc(N3CCC(NC(=O)C(C)c4ccc(Cl)cc4)CC3)n2)cc1` (stereo not drawn) [GSK1379812], the TFEB % (endogenous TFEB) was 5.92%, the “DQ Intensity” value (SH-SY5Y cells [1]) was 134.37 and the “DQ Spot” value (SH-SY5Y cells [1]) was 89.99. For the same compound, the “Nuclear Count” value (SH-SY5Y cells [2]) was 97.15, the TFE3 % (endogenous TFE3) was 16.53% and the AK (SH-SY5Y cells [3]) was 91.65.

In the case of `COc1cc(Nc2nccc(N3CCC(NS(=O)(=O)c4ccc(NC(C)=O)cc4)CC3)n2)cc(OC)c1OC` [GSK1379825], the TFEB % (endogenous TFEB) is reported as 12.82%, the “DQ Intensity” value (SH-SY5Y cells [1]) is reported as 96.24 and the “DQ Spot” value (SH-SY5Y cells [1]) is reported as 89.82. For the same compound, the “Nuclear Count” value (SH-SY5Y cells [2]) was 107.84, the TFE3 % (endogenous TFE3) was 12.08% and the AK (SH-SY5Y cells [3]) was 75.82.

For `O=C(Nc1ccc2c(c1)OCO2)NC1CCN(c2ccnc(NCc3ccc(F)cc3)n2)CC1` [GSK1379859], the TFEB % (endogenous TFEB) was 6.05%, the “DQ Intensity” value (SH-SY5Y cells [1]) was 77.50 and the “DQ Spot” value (SH-SY5Y cells [1]) was 79.61. For the same compound, the “Nuclear Count” value (SH-SY5Y cells [2]) was 98.68, the TFE3 % (endogenous TFE3) was 12.41% and the AK (SH-SY5Y cells [3]) was 102.69.

With `COC(=O)c1cccc(NC(=O)NC2CCN(c3ccnc(NCc4ccc(F)cc4)n3)CC2)c1` [GSK1379860] the TFEB % (endogenous TFEB) was 6.34%, the “DQ Intensity” value (SH-SY5Y cells [1]) was 146.32 and the “DQ Spot” value (SH-SY5Y cells [1]) was 93.58. The “Nuclear Count” value (SH-SY5Y cells [2]) was 118.43, the TFE3 % (endogenous TFE3) was 10.41% and the AK (SH-SY5Y cells [3]) was 178.25.

With `O=C(NCCNc1ccnc(Nc2ccc(F)cc2)n1)c1cc2ccccc2s1` [GSK1379874] the TFEB % (endogenous TFEB) was 5.88%, the “DQ Intensity” value (SH-SY5Y cells [1]) was 94.35 and the “DQ Spot” value (SH-SY5Y cells [1]) was 110.46. For the same compound, the “Nuclear Count” value (SH-SY5Y cells [2]) was 89.16, the TFE3 % (endogenous TFE3) was 18.78% and the AK (SH-SY5Y cells [3]) was 71.16.

With `Cc1ccc(C)c(NC(=O)NCCNc2ccnc(Nc3ccc(F)cc3)n2)c1` [GSK1379878] the TFEB % (endogenous TFEB) was 8.11%, the “DQ Intensity” value (SH-SY5Y cells [1]) was 136.83 and the “DQ Spot” value (SH-SY5Y cells [1]) was 104.85. For the same compound, the “Nuclear Count” value (SH-SY5Y cells [2]) was 85.48, the TFE3 % (endogenous TFE3) was 7.01% and the AK (SH-SY5Y cells [3]) was 103.06.

With `COc1cccc(NC(=O)NCCNc2ccnc(Nc3ccc(F)cc3)n2)c1` [GSK1379879] the TFEB % (endogenous TFEB) was 4.69%, the “DQ Intensity” value (SH-SY5Y cells [1]) was 127.01 and the “DQ Spot” value (SH-SY5Y cells [1]) was 112.84. The “Nuclear Count” value (SH-SY5Y cells [2]) was 93.19, the TFE3 % (endogenous TFE3) was 16.07% and the AK (SH-SY5Y cells [3]) was 80.56.

With `O=C(NCCNc1ccnc(Nc2ccc(F)cc2)n1)Nc1ccccc1F` [GSK1379880] the TFEB % (endogenous TFEB) was 3.19%, the “DQ Intensity” value (SH-SY5Y cells [1]) was 104.78 and the “DQ Spot” value (SH-SY5Y cells [1]) was 97.82. For the same compound, the “Nuclear Count” value (SH-SY5Y cells [2]) was 133.27, the TFE3 % (endogenous TFE3) was 7.81% and the AK (SH-SY5Y cells [3]) was 82.91.

`O=C(NCCNc1ccnc(Nc2ccc(F)cc2)n1)Nc1ccc2c(c1)OCO2` [GSK1379882] was tested, and the TFEB % (endogenous TFEB) was 4.46%, the “DQ Intensity” value (SH-SY5Y cells [1]) was 52.40 and the “DQ Spot” value (SH-SY5Y cells [1]) was 79.77. The “Nuclear Count” value (SH-SY5Y cells [2]) was 67.71, the TFE3 % (endogenous TFE3) was 17.40% and the AK (SH-SY5Y cells [3]) was 105.11.

For `COC(=O)c1cccc(NC(=O)NCCNc2ccnc(Nc3ccc(F)cc3)n2)c1` [GSK1379883], the TFEB % (endogenous TFEB) was 8.27%, the “DQ Intensity” value (SH-SY5Y cells [1]) was 102.62 and the “DQ Spot” value (SH-SY5Y cells [1]) was 95.44. The “Nuclear Count” value (SH-SY5Y cells [2]) was 115.63, the TFE3 % (endogenous TFE3) was 3.78% and the AK (SH-SY5Y cells [3]) was 105.04.

For `COc1ccc(Nc2nccc(NCCNC(=O)c3cc4ccccc4s3)n2)cc1` [GSK1379896], the TFEB % (endogenous TFEB) was 5.04%, the “DQ Intensity” value (SH-SY5Y cells [1]) was 100.56 and the “DQ Spot” value (SH-SY5Y cells [1]) was 107.99. For the same compound, the “Nuclear Count” value (SH-SY5Y cells [2]) was 88.87, the TFE3 % (endogenous TFE3) was 17.76% and the AK (SH-SY5Y cells [3]) was 100.12.

In the case of `COc1ccc(Nc2nccc(NCCNC(=O)Nc3cc(C)ccc3C)n2)cc1` [GSK1379899], the TFEB % (endogenous TFEB) is reported as 7.12%, the “DQ Intensity” value (SH-SY5Y cells [1]) is reported as 123.56 and the “DQ Spot” value (SH-SY5Y cells [1]) is reported as 108.96. The “Nuclear Count” value (SH-SY5Y cells [2]) was 88.82, the TFE3 % (endogenous TFE3) was 15.31% and the AK (SH-SY5Y cells [3]) was 79.47.

For `COc1ccc(Nc2nccc(NCCNC(=O)Nc3ccccc3F)n2)cc1` [GSK1379901], the TFEB % (endogenous TFEB) was 13.61%, the “DQ Intensity” value (SH-SY5Y cells [1]) was 112.97 and the “DQ Spot” value (SH-SY5Y cells [1]) was 125.52. The “Nuclear Count” value (SH-SY5Y cells [2]) was 49.37, the TFE3 % (endogenous TFE3) was 12.56% and the AK (SH-SY5Y cells [3]) was 100.88.

In the case of `O=C(NCCNc1ccnc(NCc2ccc(F)cc2)n1)c1cc2ccccc2s1` [GSK1379944], the TFEB % (endogenous TFEB) is reported as 8.85%, the “DQ Intensity” value (SH-SY5Y cells [1]) is reported as 122.34 and the “DQ Spot” value (SH-SY5Y cells [1]) is reported as 117.48. For the same compound, the “Nuclear Count” value (SH-SY5Y cells [2]) was 79.28, the TFE3 % (endogenous TFE3) was 12.27% and the AK (SH-SY5Y cells [3]) was 378.86.

With `Cc1cc(-c2ccnc(Nc3cccc(C#N)c3)n2)cc(C)c1O` [GSK1440913] the TFEB % (endogenous TFEB) was 7.49%, the “DQ Intensity” value (SH-SY5Y cells [1]) was 63.54 and the “DQ Spot” value (SH-SY5Y cells [1]) was 78.51. For the same compound, the “Nuclear Count” value (SH-SY5Y cells [2]) was 76.93, the TFE3 % (endogenous TFE3) was 21.61% and the AK (SH-SY5Y cells [3]) was 97.58.

With `CNC(=O)c1ccccc1Nc1nc(Nc2cccc(CS(C)(=O)=O)c2)ncc1C` [GSK1520489] the TFEB % (endogenous TFEB) was 10.40%, the “DQ Intensity” value (SH-SY5Y cells [1]) was 192.20 and the “DQ Spot” value (SH-SY5Y cells [1]) was 118.45. The “Nuclear Count” value (SH-SY5Y cells [2]) was 38.33, the TFE3 % (endogenous TFE3) was 10.71% and the AK (SH-SY5Y cells [3]) was 149.13.

For `COc1ccc(Nc2ncc(C#N)c(Nc3ccccc3C(N)=O)n2)cc1N1CCN(C)CC1` [GSK1558669], the TFEB % (endogenous TFEB) was 5.16%, the “DQ Intensity” value (SH-SY5Y cells [1]) was 142.11 and the “DQ Spot” value (SH-SY5Y cells [1]) was 120.07. The “Nuclear Count” value (SH-SY5Y cells [2]) was 62.25, the TFE3 % (endogenous TFE3) was 11.88% and the AK (SH-SY5Y cells [3]) was 96.14.

For `CNC(=O)c1ccccc1Nc1nc(Nc2ccc(N3CCOCC3)cc2)ncc1Cl` [GSK1576028], the TFEB % (endogenous TFEB) was 42.50%, the “DQ Intensity” value (SH-SY5Y cells [1]) was 165.31 and the “DQ Spot” value (SH-SY5Y cells [1]) was 111.32. For the same compound, the “Nuclear Count” value (SH-SY5Y cells [2]) was 15.51, the TFE3 % (endogenous TFE3) was 5.85% and the AK (SH-SY5Y cells [3]) was 149.21.

Source: article PMC9851200, “Multiparameter phenotypic screening for endogenous TFEB and TFE3 translocation identifies novel chemical series modulating lysosome function” (Autophagy, 2022)
